Laboratory results published in PMC11003488 (Journal of Enzyme Inhibition and Medicinal Chemistry, 2023).

Columns and labels:
K-562 = assay: NCI-60 SRB growth inhibition, one-dose and five-dose; format: cell-based; conditions: Homo sapiens
MOLT-4 = assay: as above; format: cell-based; conditions: Homo sapiens
EKVX = assay: as above; format: cell-based; conditions: Homo sapiens
HOP-62 = assay: as above; format: cell-based; conditions: Homo sapiens
NCI-H23 = assay: as above; format: cell-based; conditions: Homo sapiens
NCI-H322M = assay: as above; format: cell-based; conditions: Homo sapiens
NCI-H522 = assay: as above; format: cell-based; conditions: Homo sapiens
HCC-2998 = assay: as above; format: cell-based; conditions: Homo sapiens
SF-295 = assay: as above; format: cell-based; conditions: Homo sapiens
SF-539 = assay: as above; format: cell-based; conditions: Homo sapiens
LOX IMVI = assay: as above; format: cell-based; conditions: Homo sapiens
SK-MEL-2 = assay: as above; format: cell-based; conditions: Homo sapiens, SK-MEL-2, read-out: percent growth inhibition
SK-MEL-28 = assay: as above; format: cell-based; conditions: Homo sapiens
UACC-257 = assay: as above; format: cell-based; conditions: Homo sapiens
SK-OV-3 = assay: as above; format: cell-based; conditions: Homo sapiens
RXF 393 = assay: as above; format: cell-based; conditions: Homo sapiens
UO-31 = assay: as above; format: cell-based; conditions: Homo sapiens, UO-31
PC-3 = assay: as above; format: cell-based; conditions: Homo sapiens
MDA-MB-231/ATCC = assay: as above; format: cell-based; conditions: Homo sapiens, MDA-MB-231
Leukaemia cell lines = assay: NCI-60 SRB growth inhibition, subpanel; format: cell-based, human; conditions: Homo sapiens, read-out: GI50 MG-MID
NSCLC cell lines = assay: NCI-60 SRB growth inhibition, subpanel; format: cell-based, human; conditions: Homo sapiens, read-out: GI50 MG-MID
Colon cancer cell lines = assay: NCI-60 SRB growth inhibition, subpanel; format: cell-based, human; conditions: Homo sapiens, read-out: GI50 MG-MID
CNS cancer cell lines = assay: NCI-60 SRB growth inhibition, subpanel; format: cell-based, human; conditions: Homo sapiens, read-out: GI50 MG-MID
Melanoma cell lines = assay: NCI-60 SRB growth inhibition, subpanel; format: cell-based, human; conditions: Homo sapiens, read-out: GI50 MG-MID
[1] = test system: Ovarian cancer cell lines; assay: NCI-60 SRB growth inhibition, subpanel; format: cell-based, human; conditions: Homo sapiens, read-out: GI50 MG-MID
Renal cancer cell lines = assay: NCI-60 SRB growth inhibition, subpanel; format: cell-based, human; conditions: Homo sapiens, read-out: GI50 MG-MID
[2] = test system: Prostate cancer cell lines; assay: NCI-60 SRB growth inhibition, subpanel; format: cell-based, human; conditions: Homo sapiens, read-out: GI50 MG-MID
Breast cancer cell lines = assay: NCI-60 SRB growth inhibition, subpanel; format: cell-based, human; conditions: Homo sapiens, read-out: GI50 MG-MID
[3] = Cytotoxicity towards normal fibroblasts, safety index; format: cell-based, human; conditions: human, WI-38 normal fibroblast cells
[4] = test system: WI-38 normal human fibroblast cells; assay: as above; format: cell-based; conditions: WI-38 versus cancer cell lines
Human VEGFR-2 = Human VEGFR-2 (Homo sapiens, UniProt P35968); assay: VEGFR-2 inhibition assay; format: biochemical
[5] = read-out: percent growth inhibition

Chain of Human VEGFR-2 (P35968 20-1356): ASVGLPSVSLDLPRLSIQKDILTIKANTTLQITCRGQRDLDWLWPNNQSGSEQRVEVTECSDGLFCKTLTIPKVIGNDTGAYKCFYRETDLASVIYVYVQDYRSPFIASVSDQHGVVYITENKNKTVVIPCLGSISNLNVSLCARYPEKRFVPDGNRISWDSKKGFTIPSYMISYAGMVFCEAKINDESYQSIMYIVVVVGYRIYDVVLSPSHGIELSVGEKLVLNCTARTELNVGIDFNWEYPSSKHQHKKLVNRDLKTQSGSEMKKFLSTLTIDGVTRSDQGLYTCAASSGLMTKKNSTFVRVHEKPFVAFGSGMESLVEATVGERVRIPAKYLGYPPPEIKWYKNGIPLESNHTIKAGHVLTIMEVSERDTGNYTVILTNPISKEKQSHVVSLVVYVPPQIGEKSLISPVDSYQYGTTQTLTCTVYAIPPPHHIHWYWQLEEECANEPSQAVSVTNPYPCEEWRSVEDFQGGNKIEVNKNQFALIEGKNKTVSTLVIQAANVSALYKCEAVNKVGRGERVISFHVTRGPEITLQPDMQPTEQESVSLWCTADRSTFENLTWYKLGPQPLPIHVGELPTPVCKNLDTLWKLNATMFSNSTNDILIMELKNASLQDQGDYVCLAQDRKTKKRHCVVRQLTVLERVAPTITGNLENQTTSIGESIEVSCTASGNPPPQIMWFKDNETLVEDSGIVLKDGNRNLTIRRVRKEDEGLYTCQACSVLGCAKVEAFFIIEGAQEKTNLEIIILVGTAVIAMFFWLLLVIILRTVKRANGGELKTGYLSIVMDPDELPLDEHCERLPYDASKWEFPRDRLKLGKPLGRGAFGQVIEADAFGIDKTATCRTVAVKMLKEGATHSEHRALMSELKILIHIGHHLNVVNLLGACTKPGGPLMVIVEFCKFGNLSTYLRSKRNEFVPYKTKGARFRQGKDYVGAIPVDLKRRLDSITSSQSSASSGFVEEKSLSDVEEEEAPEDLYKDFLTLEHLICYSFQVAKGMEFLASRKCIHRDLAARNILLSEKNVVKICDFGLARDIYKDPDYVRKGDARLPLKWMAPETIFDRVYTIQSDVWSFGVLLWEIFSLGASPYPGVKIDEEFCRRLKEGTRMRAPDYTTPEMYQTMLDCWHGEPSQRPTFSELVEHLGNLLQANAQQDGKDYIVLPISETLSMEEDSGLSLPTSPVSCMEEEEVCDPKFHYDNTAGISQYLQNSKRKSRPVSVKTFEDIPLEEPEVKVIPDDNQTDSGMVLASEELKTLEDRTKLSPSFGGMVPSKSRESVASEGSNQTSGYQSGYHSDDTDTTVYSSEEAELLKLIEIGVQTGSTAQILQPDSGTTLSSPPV

**Q.** For `CC(=O)Nc1ccc(/C=C/C(=O)c2cccc(NCc3ccc(NC(C)=O)cc3)c2)cc1` [Compound 5g, (E)-N-(4–(3-(3-((4-acetamidobenzyl)amino)phenyl)-3-oxoprop-1-en-1-yl)phenyl) acetamide], which GI50 (K-562; K562) is on record?
**A.** 2930 nM

**Q.** What about the inhibition at 10 µM (K-562; K562, read-out: percent growth inhibition) of the same compound?
**A.** 100%

**Q.** What about the GI50 (MOLT-4; MOLT-4) of the same compound?
**A.** 3.21 µM

**Q.** And the inhibition at 10 µM (MOLT-4; MOLT-4, read-out: percent growth inhibition)?
**A.** 116%

**Q.** What about the GI50 (EKVX) of the same compound?
**A.** 13.5 µM

**Q.** And the inhibition at 10 µM (EKVX; [5])?
**A.** 43.7%

**Q.** And the GI50 (HOP-62; HOP-62)?
**A.** 14.5 µM

**Q.** And the inhibition at 10 µM (HOP-62; HOP-62, read-out: percent growth inhibition)?
**A.** 35.3%

**Q.** And the GI50 (NCI-H23; NCI-H23)?
**A.** 14.4 µM

**Q.** What about the inhibition at 10 µM (NCI-H23; NCI-H23, read-out: percent growth inhibition) of the same compound?
**A.** 55.1%

**Q.** What about the GI50 (NCI-H322M) of the same compound?
**A.** 13.8 µM

**Q.** What about the inhibition at 10 µM (NCI-H322M; [5]) of the same compound?
**A.** 28.7%

**Q.** What about the GI50 (NCI-H522; NCI-H522) of the same compound?
**A.** 6.54 µM

**Q.** And the inhibition at 10 µM (NCI-H522; NCI-H522, read-out: percent growth inhibition)?
**A.** 159%

**Q.** And the GI50 (HCC-2998; HCC 2998)?
**A.** 14.8 µM

**Q.** What about the inhibition at 10 µM (HCC-2998; HCC 2998, read-out: percent growth inhibition) of the same compound?
**A.** 137%

**Q.** What about the GI50 (SF-295; SF-295) of the same compound?
**A.** 14 µM

**Q.** What about the inhibition at 10 µM (SF-295; SF-295, read-out: percent growth inhibition) of the same compound?
**A.** 51.8%

**Q.** And the GI50 (SF-539; SF-539)?
**A.** 12.2 µM

**Q.** What about the inhibition at 10 µM (SF-539; SF-539, read-out: percent growth inhibition) of the same compound?
**A.** 167%

**Q.** What about the GI50 (LOX IMVI) of the same compound?
**A.** 1900 nM

**Q.** What about the inhibition at 10 µM (LOX IMVI; [5]) of the same compound?
**A.** 191%

**Q.** What about the inhibition at 10 µM (SK-MEL-2) of the same compound?
**A.** 28.3%

**Q.** What about the GI50 (SK-MEL-28; SK-MEL-28) of the same compound?
**A.** 12.7 µM

**Q.** And the inhibition at 10 µM (SK-MEL-28; SK-MEL-28, read-out: percent growth inhibition)?
**A.** 98.3%

**Q.** And the GI50 (UACC-257; UACC-257)?
**A.** 12.5 µM

**Q.** What about the inhibition at 10 µM (UACC-257; UACC-257, read-out: percent growth inhibition) of the same compound?
**A.** 51.1%

**Q.** And the GI50 (SK-OV-3; SK-OV-3)?
**A.** 16.3 µM

**Q.** What about the inhibition at 10 µM (SK-OV-3; SK-OV-3, read-out: percent growth inhibition) of the same compound?
**A.** 0.18%

**Q.** What about the GI50 (RXF 393; RXF 393) of the same compound?
**A.** 11.3 µM

**Q.** What about the inhibition at 10 µM (RXF 393; RXF 393, read-out: percent growth inhibition) of the same compound?
**A.** 158%

**Q.** What about the GI50 (UO-31) of the same compound?
**A.** 10.8 µM

**Q.** And the GI50 (PC-3; PC-3)?
**A.** 11.6 µM

**Q.** And the inhibition at 10 µM (PC-3; PC-3, read-out: percent growth inhibition)?
**A.** 54.8%

**Q.** And the GI50 (MDA-MB-231/ATCC)?
**A.** 4.56 µM

**Q.** And the GI50 (Leukaemia cell lines)?
**A.** 3.87 µM

**Q.** And the GI50 (NSCLC cell lines)?
**A.** 12.2 µM

**Q.** And the GI50 (Colon cancer cell lines)?
**A.** 8.13 µM

**Q.** And the GI50 (CNS cancer cell lines)?
**A.** 9.95 µM

**Q.** What about the GI50 (Melanoma cell lines) of the same compound?
**A.** 9.64 µM

**Q.** What about the GI50 [1] of the same compound?
**A.** 11.8 µM

**Q.** What about the GI50 (Renal cancer cell lines) of the same compound?
**A.** 10.7 µM

**Q.** And the GI50 [2]?
**A.** 11.7 µM

**Q.** And the GI50 (Breast cancer cell lines)?
**A.** 7.7 µM

**Q.** And the GI50 at 48 h [3]?
**A.** > 100 µM

**Q.** What about the Safety index [4] of the same compound?
**A.** >1

**Q.** What about the IC50 (Human VEGFR-2) of the same compound?
**A.** 470 ± 13 nM
